{"source": "paper PMC6100082", "about": "“Pyridine-Ureas as Potential Anticancer Agents: Synthesis and In Vitro Biological Evaluation” (Molecules : A Journal of Synthetic Chemistry and Natural …, 2018)", "format_in_all_cases": "cell-based, human", "key": {"PC-3": {"tested_on": "PC-3", "test": "NCI one-dose SRB assay (Prostate)", "method": "(§1) The structures of all the newly prepared pyridine-ureas 8a–n were submitted to the National Cancer Institute (NCI) Developmental Therapeutic Program. Eight compounds 8b, 8d, 8e, 8i, 8j and 8l–n were selected to be examined for their in vitro growth inhibitory activity. The anticancer assays were carried out according to the protocol of the Drug Evaluation Branch, NCI, Bethesda. The selected pyridine-ureas were tested at one dose primary anticancer assay against a panel of approximately 58 cancer lines (concentration 10^−5 M). The tested human cancer cell lines emerged from nine different cancer subtypes: leukemia, colon, melanoma, ovarian, lung, CNS, renal, breast and prostate cancers. The sulforhodamine B (SRB) protein assay was adopted to estimate the cell viability and growth. The results were reported as mean-graph of the percentage growth of the treated cells, and presented as percentage growth inhibition (GI%) caused by the test compounds (Table 2).\n(§2) The anticancer assays were performed in accordance with the protocol of the Drug Evaluation Branch, NCI, Bethesda. A 48 h drug exposure protocol was used and sulforhodamine B (SRB) protein assay was applied to estimate the cell viability and growth, as reported earlier."}, "DU-145": {"tested_on": "DU-145", "test": "NCI one-dose SRB assay (Prostate)", "method": "as §1, §2"}, "SNB-75": {"tested_on": "SNB-75", "test": "NCI one-dose SRB assay (CNS Cancer)", "method": "as §1, §2"}, "SNB-19": {"tested_on": "SNB-19", "test": "NCI one-dose SRB assay (CNS Cancer)", "method": "as §1, §2"}, "SF-268": {"tested_on": "SF-268", "test": "NCI one-dose SRB assay (CNS Cancer)", "method": "as §1, §2"}, "SF-539": {"tested_on": "SF-539", "test": "NCI one-dose SRB assay (CNS Cancer)", "method": "as §1, §2"}, "SF-295": {"tested_on": "SF-295", "test": "NCI one-dose SRB assay (CNS Cancer)", "method": "as §1, §2"}, "U251": {"tested_on": "U251", "test": "NCI one-dose SRB assay (CNS Cancer)", "method": "as §1, §2"}, "MCF7": {"tested_on": "MCF7", "test": "NCI one-dose SRB assay (Breast Cancer)", "method": "as §1, §2"}, "T-47D": {"tested_on": "T-47D", "test": "NCI one-dose SRB assay (Breast Cancer)", "method": "as §1, §2"}, "MDA-MB-468": {"tested_on": "MDA-MB-468", "test": "NCI one-dose SRB assay (Breast Cancer)", "method": "as §1, §2"}, "HS 578T": {"tested_on": "HS 578T", "test": "NCI one-dose SRB assay (Breast Cancer)", "method": "as §1, §2"}, "BT-549": {"tested_on": "BT-549", "test": "NCI one-dose SRB assay (Breast Cancer)", "method": "as §1, §2"}, "MDA-MB-231": {"tested_on": "MDA-MB-231", "test": "NCI one-dose SRB assay (Breast Cancer)", "method": "as §1, §2"}, "NCI 58 cell line panel": {"tested_on": "NCI 58 cell line panel", "test": "NCI one-dose SRB assay, whole panel / subpanel summary", "conditions": "One Dose Mean Graph, 1.00E-5 Molar", "method": "as §1, §2"}, "NCI-H460": {"tested_on": "NCI-H460", "test": "NCI one-dose SRB assay (Non-Small Cell Lung Cancer)", "method": "as §1, §2"}, "EKVX": {"tested_on": "EKVX", "test": "NCI one-dose SRB assay (Non-Small Cell Lung Cancer)", "method": "as §1, §2"}, "NCI-H23": {"tested_on": "NCI-H23", "test": "NCI one-dose SRB assay (Non-Small Cell Lung Cancer)", "method": "as §1, §2"}, "NCI-H322M": {"tested_on": "NCI-H322M", "test": "NCI one-dose SRB assay (Non-Small Cell Lung Cancer)", "method": "as §1, §2"}, "NCI-H226": {"tested_on": "NCI-H226", "test": "NCI one-dose SRB assay (Non-Small Cell Lung Cancer)", "method": "as §1, §2"}, "A549/ATCC": {"tested_on": "A549/ATCC", "test": "NCI one-dose SRB assay (Non-Small Cell Lung Cancer)", "method": "as §1, §2"}, "HOP-62": {"tested_on": "HOP-62", "test": "NCI one-dose SRB assay (Non-Small Cell Lung Cancer)", "method": "as §1, §2"}, "NCI-H522": {"tested_on": "NCI-H522", "test": "NCI one-dose SRB assay (Non-Small Cell Lung Cancer)", "method": "as §1, §2"}, "HOP-92": {"tested_on": "HOP-92", "test": "NCI one-dose SRB assay (Non-Small Cell Lung Cancer)", "method": "as §1, §2"}, "OVCAR-3": {"tested_on": "OVCAR-3", "test": "NCI one-dose SRB assay (Ovarian Cancer)", "method": "as §1, §2"}, "OVCAR-4": {"tested_on": "OVCAR-4", "test": "NCI one-dose SRB assay (Ovarian Cancer)", "method": "as §1, §2"}, "OVCAR-5": {"tested_on": "OVCAR-5", "test": "NCI one-dose SRB assay (Ovarian Cancer)", "method": "as §1, §2"}}}
{"substance": "1-(4-Chloro-4-(trifluoromethyl)cyclohexa-2,5-dien-1-yl)-3-(6-(3,4-dimethoxyphenyl)-2-methylpyridin-3-yl)urea [Compound 8l]", "values": [{"measurement": "Percentage growth inhibition (GI%)", "setting": "PC-3; PC-3, 10 μM", "result": 67, "unit": "%"}, {"measurement": "Growth Percent", "setting": "PC-3; PC-3, 1.00E-5 Molar", "result": 33.54, "unit": "%"}, {"measurement": "Percentage growth inhibition (GI%)", "setting": "DU-145; DU-145, 10 μM", "result": 20, "unit": "%"}, {"measurement": "Growth Percent", "setting": "DU-145; DU-145, 1.00E-5 Molar", "result": 80.60, "unit": "%"}, {"measurement": "Percentage growth inhibition (GI%)", "setting": "SNB-75; SNB-75, 10 μM", "result": 20, "unit": "%"}, {"measurement": "Growth Percent", "setting": "SNB-75; SNB-75, 1.00E-5 Molar", "result": 80.45, "unit": "%"}, {"measurement": "Percentage growth inhibition (GI%)", "setting": "SNB-19; SNB-19, 10 μM", "result": 22, "unit": "%"}, {"measurement": "Growth Percent", "setting": "SNB-19; SNB-19, 1.00E-5 Molar", "result": 78.75, "unit": "%"}, {"measurement": "Percentage growth inhibition (GI%)", "setting": "SF-268; SF-268, 10 μM", "result": 25, "unit": "%"}, {"measurement": "Growth Percent", "setting": "SF-268; SF-268, 1.00E-5 Molar", "result": 75.77, "unit": "%"}, {"measurement": "Percentage growth inhibition (GI%)", "setting": "SF-539; SF-539, 10 μM", "result": 13, "unit": "%"}, {"measurement": "Growth Percent", "setting": "SF-539; SF-539, 1.00E-5 Molar", "result": 87.81, "unit": "%"}, {"measurement": "Percentage growth inhibition (GI%)", "setting": "SF-295; SF-295, 10 μM", "result": 29, "unit": "%"}, {"measurement": "Growth Percent", "setting": "SF-295; SF-295, 1.00E-5 Molar", "result": 71.54, "unit": "%"}, {"measurement": "Percentage growth inhibition (GI%)", "setting": "U251; U251, 10 μM", "result": 45, "unit": "%"}, {"measurement": "Growth Percent", "setting": "U251; U251, 1.00E-5 Molar", "result": 55.26, "unit": "%"}, {"measurement": "Percentage growth inhibition (GI%)", "setting": "MCF7; MCF7, 10 μM", "result": 42, "unit": "%"}, {"measurement": "Growth Percent", "setting": "MCF7; MCF7, 1.00E-5 Molar", "result": 58.28, "unit": "%"}, {"measurement": "Percentage growth inhibition (GI%)", "setting": "T-47D; 10 μM", "result": 51, "unit": "%"}, {"measurement": "Growth Percent", "setting": "T-47D; 1.00E-5 Molar", "result": 49.20, "unit": "%"}, {"measurement": "Percentage growth inhibition (GI%)", "setting": "MDA-MB-468; MDA-MB-468, 10 μM", "result": 52, "unit": "%"}, {"measurement": "Growth Percent", "setting": "MDA-MB-468; MDA-MB-468, 1.00E-5 Molar", "result": 48.57, "unit": "%"}, {"measurement": "Percentage growth inhibition (GI%)", "setting": "HS 578T; 10 μM", "result": 19, "unit": "%"}, {"measurement": "Growth Percent", "setting": "HS 578T; 1.00E-5 Molar", "result": 81.01, "unit": "%"}, {"measurement": "Percentage growth inhibition (GI%)", "setting": "BT-549; BT-549, 10 μM", "result": 12, "unit": "%"}, {"measurement": "Growth Percent", "setting": "BT-549; BT-549, 1.00E-5 Molar", "result": 88.97, "unit": "%"}, {"measurement": "Percentage growth inhibition (GI%)", "setting": "MDA-MB-231; MDA-MB-231, 10 μM", "result": 12, "unit": "%"}, {"measurement": "Growth Percent", "setting": "MDA-MB-231; MDA-MB-231/ATCC, 1.00E-5 Molar", "result": 88.41, "unit": "%"}, {"measurement": "Mean Growth Percent", "setting": "NCI 58 cell line panel", "result": 68.99, "unit": "%"}, {"measurement": "Percentage growth inhibition (GI%)", "setting": "NCI-H460; NCI-H460, 10 μM", "result": 48, "unit": "%"}, {"measurement": "Growth Percent", "setting": "NCI-H460; NCI-H460, 1.00E-5 Molar", "result": 52.19, "unit": "%"}, {"measurement": "Percentage growth inhibition (GI%)", "setting": "EKVX; 10 μM", "result": 33, "unit": "%"}, {"measurement": "Growth Percent", "setting": "EKVX; 1.00E-5 Molar", "result": 67.30, "unit": "%"}, {"measurement": "Percentage growth inhibition (GI%)", "setting": "NCI-H23; NCI-H23, 10 μM", "result": 29, "unit": "%"}, {"measurement": "Growth Percent", "setting": "NCI-H23; NCI-H23, 1.00E-5 Molar", "result": 71.36, "unit": "%"}, {"measurement": "Percentage growth inhibition (GI%)", "setting": "NCI-H322M; 10 μM", "result": 13, "unit": "%"}, {"measurement": "Growth Percent", "setting": "NCI-H322M; 1.00E-5 Molar", "result": 87.05, "unit": "%"}, {"measurement": "Percentage growth inhibition (GI%)", "setting": "NCI-H226; NCI-H226, 10 μM", "result": 28, "unit": "%"}, {"measurement": "Growth Percent", "setting": "NCI-H226; NCI-H226, 1.00E-5 Molar", "result": 72.73, "unit": "%"}, {"measurement": "Percentage growth inhibition (GI%)", "setting": "A549/ATCC; 10 μM", "result": 56, "unit": "%"}, {"measurement": "Growth Percent", "setting": "A549/ATCC; 1.00E-5 Molar", "result": 44.62, "unit": "%"}, {"measurement": "Percentage growth inhibition (GI%)", "setting": "HOP-62; HOP-62, 10 μM", "result": 23, "unit": "%"}, {"measurement": "Growth Percent", "setting": "HOP-62; HOP-62, 1.00E-5 Molar", "result": 77.10, "unit": "%"}, {"measurement": "Percentage growth inhibition (GI%)", "setting": "NCI-H522; NCI-H522, 10 μM", "result": 57, "unit": "%"}, {"measurement": "Growth Percent", "setting": "NCI-H522; NCI-H522, 1.00E-5 Molar", "result": 43.02, "unit": "%"}, {"measurement": "Percentage growth inhibition (GI%)", "setting": "HOP-92; HOP-92, 10 μM", "result": 30, "unit": "%"}, {"measurement": "Growth Percent", "setting": "HOP-92; HOP-92, 1.00E-5 Molar", "result": 70.53, "unit": "%"}, {"measurement": "Percentage growth inhibition (GI%)", "setting": "OVCAR-3; OVCAR-3, 10 μM", "result": 43, "unit": "%"}, {"measurement": "Growth Percent", "setting": "OVCAR-3; OVCAR-3, 1.00E-5 Molar", "result": 57.00, "unit": "%"}, {"measurement": "Percentage growth inhibition (GI%)", "setting": "OVCAR-4; OVCAR-4, 10 μM", "result": 25, "unit": "%"}, {"measurement": "Growth Percent", "setting": "OVCAR-4; OVCAR-4, 1.00E-5 Molar", "result": 75.13, "unit": "%"}, {"measurement": "Percentage growth inhibition (GI%)", "setting": "OVCAR-5; OVCAR-5, 10 μM", "result": 15, "unit": "%"}, {"measurement": "Growth Percent", "setting": "OVCAR-5; OVCAR-5, 1.00E-5 Molar", "result": 85.15, "unit": "%"}]}
